Results reported in US8940909B2, “Indicator platform” (Biosynth AG, priority 2009, dated 2015).

Assays:
Experiment in all cases: IO staining of colonies of beta-D-galactosidase positive/negative bacteria (Table IVb)
Format in all cases: cell-based
Escherichia coli 61 = settings: Escherichia coli strain 61, b-gal +; 24 h on Nutrient Agar, 150 mg/l indicator, 100 mg/l IPTG
[1] = system: Shigella dysenteriae Serovar 1 131; settings: Shigella dysenteriae Serovar 1 strain 131, b-gal +/−; 24 h on Nutrient Agar, 150 mg/l indicator, 100 mg/l IPTG
[2] = system: Streptococcus agalactiae 195; settings: Streptococcus agalactiae strain 195, b-gal −; 24 h on Nutrient Agar, 150 mg/l indicator, 100 mg/l IPTG; on C: Color of colonies: key: −: absent; +/−: weak; +: strong; ++: very strong; on F: Fluorescence of colonies: key: −: absent; +/−: weak; +: strong; ++: very strong
[3] = system: Salmonella enteritidis 43; settings: Salmonella enteritidis strain 43, b-gal −; 24 h on Nutrient Agar, 150 mg/l indicator, 100 mg/l IPTG; further: key: −: absent; +/−: weak; +: strong; ++: very strong
Aeromonas hydrophila 292 = settings: Aeromonas hydrophila strain 292, b-gal +; 24 h on Nutrient Agar, 150 mg/l indicator, 100 mg/l IPTG
Salmonella bongori 81 = settings: Salmonella bongori strain 81, b-gal +; 24 h on Nutrient Agar, 150 mg/l indicator, 100 mg/l IPTG
Escherichia coli 270 = settings: Escherichia coli strain 270, b-gal +; 24 h on Nutrient Agar, 150 mg/l indicator, 100 mg/l IPTG
[4] = system: Staphylococcus intermedius 31; settings: Staphylococcus intermedius strain 31, b-gal +; 24 h on Nutrient Agar, 150 mg/l indicator, 100 mg/l IPTG
Bacillus subtilis 65 = settings: Bacillus subtilis strain 65, b-gal −; 24 h on Nutrient Agar, 150 mg/l indicator, 100 mg/l IPTG
Serratia marcescens 40 = settings: Serratia marcescens strain 40, b-gal +; 24 h on Nutrient Agar, 150 mg/l indicator, 100 mg/l IPTG
[5] = system: Staphylococcus saprophyticus 273; settings: Staphylococcus saprophyticus strain 273, b-gal +; 24 h on Nutrient Agar, 150 mg/l indicator, 100 mg/l IPTG; on G: Growth of colonies: key: −: absent; +/−: weak; +: strong; ++: very strong
[6] = system: Enterobacter aerogenes 242; settings: Enterobacter aerogenes strain 242, b-gal +; 24 h on Nutrient Agar, 150 mg/l indicator, 100 mg/l IPTG; on C: Color of colonies: key: −: absent; +/−: weak; +: strong; ++: very strong; on G: Growth of colonies: key: −: absent; +/−: weak; +: strong; ++: very strong
[7] = system: Listeria monocytogenes (4b) 290; settings: Listeria monocytogenes (4b) strain 290, b-gal −; 24 h on Nutrient Agar, 150 mg/l indicator, 100 mg/l IPTG; on C: Color of colonies: key: −: absent; +/−: weak; +: strong; ++: very strong; on F: Fluorescence of colonies: key: −: absent; +/−: weak; +: strong; ++: very strong
Shigella sonnei 133 = settings: Shigella sonnei strain 133, b-gal +/−; 24 h on Nutrient Agar, 150 mg/l indicator, 100 mg/l IPTG
[8] = system: Yersinia enterocolitica 175; settings: Yersinia enterocolitica strain 175, b-gal +/−; 24 h on Nutrient Agar, 150 mg/l indicator, 100 mg/l IPTG; on G: Growth of colonies: key: −: absent; +/−: weak; +: strong; ++: very strong
[9] = system: Escherichia coli (O157:H7) 60; settings: Escherichia coli (O157:H7) strain 60, b-gal +; 24 h on Nutrient Agar, 150 mg/l indicator, 100 mg/l IPTG
Staphylococcus aureus 2 = settings: Staphylococcus aureus strain 2, b-gal −, 24 h on Nutrient Agar, 150 mg/l indicator, 100 mg/l IPTG
Salmonella illa 73 = settings: Salmonella illa strain 73, b-gal +; 24 h on Nutrient Agar, 150 mg/l indicator, 100 mg/l IPTG
[10] = system: Pseudomonas aeruginosa 168; settings: Pseudomonas aeruginosa strain 168, b-gal −, 24 h on Nutrient Agar, 150 mg/l indicator, 100 mg/l IPTG; on C: Color of colonies: key: −: absent; +/−: weak; +: strong; ++: very strong; on G: Growth of colonies: key: −: absent; +/−: weak; +: strong; ++: very strong
[11] = system: Klebsiella pneumoniae 164; settings: Klebsiella pneumoniae strain 164, b-gal +; 24 h on Nutrient Agar, 150 mg/l indicator, 100 mg/l IPTG; on C: Color of colonies: key: −: absent; +/−: weak; +: strong; ++: very strong; on G: Growth of colonies: key: −: absent; +/−: weak; +: strong; ++: very strong
Citrobacter freundii 181 = settings: Citrobacter freundii strain 181, b-gal +; 24 h on Nutrient Agar, 150 mg/l indicator, 100 mg/l IPTG

SMILES: COc1ccc(C(=O)c2ccccc2-n2cc(O[C@@H]3O[C@H](CO)[C@H](O)[C@H](O)[C@H]3O)c3c(Cl)c(Br)ccc32)c(OC)c1 [Indicator I28a, 5-Bromo-4-chloro-1-[2-(2,4-dimethoxybenzoyl)phenyl]-1H-indol-3-yl-beta-D-galactopyranoside]
- C: Color of colonies (Escherichia coli 61): +
- F: Fluorescence of colonies (Escherichia coli 61): +/−
- G: Growth of colonies (Escherichia coli 61): +
- C: Color of colonies [1]: −
- F: Fluorescence of colonies [1]: −
- G: Growth of colonies [1]: +
- C: Color of colonies [2]: −
- F: Fluorescence of colonies [2]: −
- G: Growth of colonies [2]: +/−
- C: Color of colonies [3]: −
- F: Fluorescence of colonies [3]: −
- G: Growth of colonies [3]: +
- C: Color of colonies (Aeromonas hydrophila 292): +/−
- F: Fluorescence of colonies (Aeromonas hydrophila 292): −
- G: Growth of colonies (Aeromonas hydrophila 292): +
- C: Color of colonies (Salmonella bongori 81): +/−
- F: Fluorescence of colonies (Salmonella bongori 81): −
- G: Growth of colonies (Salmonella bongori 81): +
- C: Color of colonies (Escherichia coli 270): ++
- F: Fluorescence of colonies (Escherichia coli 270): +/−
- G: Growth of colonies (Escherichia coli 270): +
- C: Color of colonies [4]: +
- F: Fluorescence of colonies [4]: +/−
- G: Growth of colonies [4]: +
- C: Color of colonies (Bacillus subtilis 65): −
- F: Fluorescence of colonies (Bacillus subtilis 65): −
- G: Growth of colonies (Bacillus subtilis 65): +/−
- C: Color of colonies (Serratia marcescens 40): +/−
- F: Fluorescence of colonies (Serratia marcescens 40): −
- G: Growth of colonies (Serratia marcescens 40): +
- C: Color of colonies [5]: +/−
- F: Fluorescence of colonies [5]: −
- G: Growth of colonies [5]: +
- C: Color of colonies [6]: +
- F: Fluorescence of colonies [6]: +/−
- G: Growth of colonies [6]: +
- C: Color of colonies [7]: −
- F: Fluorescence of colonies [7]: −
- G: Growth of colonies [7]: +/−
- C: Color of colonies (Shigella sonnei 133): +
- F: Fluorescence of colonies (Shigella sonnei 133): +/−
- G: Growth of colonies (Shigella sonnei 133): +
- C: Color of colonies [8]: −
- F: Fluorescence of colonies [8]: −
- G: Growth of colonies [8]: +
- C: Color of colonies [9]: +
- F: Fluorescence of colonies [9]: +/−
- G: Growth of colonies [9]: +
- F: Fluorescence of colonies (Staphylococcus aureus 2): −
- G: Growth of colonies (Staphylococcus aureus 2): +/−
- C: Color of colonies (Staphylococcus aureus 2; footnote 2: S. aureus natural color): −
- C: Color of colonies (Salmonella illa 73): −
- F: Fluorescence of colonies (Salmonella illa 73): −
- G: Growth of colonies (Salmonella illa 73): +
- C: Color of colonies [10]: −
- G: Growth of colonies [10]: +
- F: Fluorescence of colonies ([10]; footnote 1: blue autofluorescence): +^1
- C: Color of colonies [11]: +
- F: Fluorescence of colonies [11]: +/−
- G: Growth of colonies [11]: +
- C: Color of colonies (Citrobacter freundii 181): +
- F: Fluorescence of colonies (Citrobacter freundii 181): +/−
- G: Growth of colonies (Citrobacter freundii 181): +
